The values below come from patent US20200138802A1, “Aggressive Lipid Lowering Therapy in Coronary Artery Disease” (Kowa Company, Ltd., priority 2018, published 2020).

Experiment [1] can be described thus: Randomized open-label phase 4 trial of pitavastatin 4 mg/day versus 1 mg/day in Japanese patients with stable coronary artery disease. It is filed as in vivo, human. The method, then: This study was a prospective, multicenter, randomized, open-label, blinded-endpoint, physician-initiated phase 4 trial designed to investigate whether high-dose statin therapy could reduce CV events in patients with stable CAD as compared with low-dose statin therapy. We hypothesized that aggressive lipid lowering treatment with pitavastatin 4 mg/day would reduce the incidence of the composite endpoint comprised of CV death, non-fatal myocardial infarction (MI), non-fatal ischemic stroke, and unstable angina requiring emergency hospitalization. The control group received pitavastatin 1 mg/day.
Men and women aged 20 to 80 years with clinically evident stable CAD and elevated LDL-C were eligible for this study. CAD was defined as 1) previous ACS, such as acute myocardial infarction or unstable angina; 2) a previous coronary revascularization procedure (PCI or coronary artery bypass grafting (“CABG”)); or 3) atherosclerotic CAD detected by coronary artery angiography with at least 75% stenosis in major epicardial coronary arteries (American Heart Association classification). (30) Patients with elevated LDL-C at entry were defined as (1) patients not receiving chronic lipid-lowering therapy with LDL-C≥140 mg/dL, (2) patients with LDL-C≥100 mg/dL and considered by the attending physician to need lipid-lowering therapy, or (3) patients being treated with lipid-lowering therapy.
Exclusion criteria included (1) any planned coronary revascularization procedure, (2) active malignancy, (3) contraindication for pitavastatin (hypersensitivity to pitavastatin, severe liver disease or hepatic dysfunction, concurrent cyclosporine use, or suspected or confirmed pregnancy or current breastfeeding), (4) severe congestive heart failure (ejection fraction<30% or NYHA class≥3), (5) current hemodialysis, (6) familial hypercholesterolemia, (7) current participation in another clinical trial, (8) current use of any prohibited drug (lipid-lowering drug other than pitavastatin) that could not be discontinued during the study, and (9) any other finding that would make the patient unsuitable for this study in the opinion of the investigators.
Participants were recruited at 733 hospitals in Japan. During screening visits, informed consent and baseline medical history were obtained, and a clinical examination and laboratory testing were performed. Blood samples were collected to determine fasting lipid levels and the patient's standard clinical profile. After discontinuation of all previous lipid-lowering therapies, all eligible patients started receiving treatment with pitavastatin 1 mg/day on an open-label basis for at least 1 month (run-in period). At the end of the run-in period (week 0), those patients with LDL-C levels below 120 mg/dL, measured by a central laboratory using Friedwald's formula, were eligible for randomization. Patients with prior ACS or coronary revascularization could be randomized beyond 3 months after the index event. Randomization was not allowed for patients with poor adherence (less than 50%) for the study drug during the run-in period or for patients with the primary endpoint events during the run-in period.
Patients were randomized in a 1:1 ratio to either pitavastatin 4 mg or pitavastatin 1 mg once daily. Randomized treatment assignment was stratified by 5 factors: 1) institution, 2) prior statin use, 3) age (<65 or ≥65), 4) diabetes, and 5) sex. Patients were to be followed for 3 years, and study visits were scheduled at 6 months for the first visit and every year thereafter. At each visit, information on vital signs, clinical endpoints, adverse events, and concurrent medication was collected. In addition, physical examinations and electrocardiograms were performed and blood specimens were collected at 6 months and every 12 months thereafter for lipid and other laboratory tests. […]

For experiment [2] the following is noted: 4 mg of pitavastatin; cited from earlier work.

Take `O=C(O)C[C@H](O)C[C@H](O)/C=C/c1c(C2CC2)nc2ccccc2c1-c1ccc(F)cc1` [pitavastatin]: in experiment [1] (1 mg and 4 mg pitavastatin groups, FIG. 8), the “incidence rates of individual CV events: death from any cause, myocardial infarction, and coronary revascularization results” value was “positive”. Moreover, the LDL-C result in experiment [1] (patients converted from 1 mg dose to 4 mg dose of pitavastatin, stable CAD, FIG. 2) was “statistically significant reduction”. For the same molecule, the HDL-C entry in experiment [1] (patients converted from 1 mg dose to 4 mg dose of pitavastatin, stable CAD, FIG. 3) was “numerically superior increase”. Further, in experiment [1] (patients converted from 1 mg dose to 4 mg dose of pitavastatin, stable CAD, FIG. 4), the TG entry was “statistically significant reduction”. For the same molecule, in experiment [1] (patients converted from 1 mg dose to 4 mg dose of pitavastatin, stable CAD, FIG. 5), the hs-CGP entry is “statistically significant reduction”. The “primary clinical endpoint (composite of CV death, MI, ischemic stroke and UA)” value in experiment [1] (patients converted from 1 mg dose to 4 mg dose of pitavastatin, stable CAD, FIG. 6) was “statistically significant reduction”. Besides, the “secondary clinical endpoint (primary endpoint+coronary revascularization)” value in experiment [1] (patients converted from 1 mg dose to 4 mg dose of pitavastatin, stable CAD, FIG. 7) is listed as “statistically significant reduction”. Further, in experiment [1] (subgroup analysis, 1 mg versus 4 mg pitavastatin, FIG. 9), the “effect of LDL-C status (≥95 mg/dL or <95 mg/dL) on primary endpoint incidence rates” value is given as “did not affect the results”. The “reduction of LDL-C from baseline” value in experiment [2] was 42.9%.
